Measured values from publication PMC8333425, “Discovery of a dual Ras and ARF6 inhibitor from a GPCR endocytosis screen” (Nature Communications, 2021).
“And” between values parts separate entries of the source, which are not always exact repeats. Identical values can stand only once.

Assays:
Type in all cases: cell-based, human
B2R = assay: Endosomal BRET assay of agonist-mediated B2R internalization (B2R-RlucII / Endo-rGFP)
Excerpt: (§1) We performed a HT campaign in HEK293 cells using the bystander endosomal BRET sensor, which consists of a Renilla luciferase (RlucII)-tagged AT1R and an acceptor renilla GFP (rGFP) anchored to endosomes through an Endofin-FYVE (Endo-rGFP) domain[12]. AngII-mediated trafficking of AT1R to endosomes was screened against commercial libraries of ~115,000 small molecules (Fig. 1a and Supplementary Data 1). Because our assay is based on luminescence and fluorescence, we excluded 6610 compounds that quenched more than 50% of the luciferase or GFP signals. After excluding 5 AT1R antagonists, we conserved hit compounds blocking by more than 40%, as well as those potentiating by more than 100% receptor internalization. From this collection of 943 compounds, a second validation on AT1R internalization was performed using the same BRET assay, as well as on the agonist-mediated B2R internalization, this time using B2R-RlucII and Endo-rGFP. Only compounds that were revalidated on AT1R and affected B2R endocytosis were kept, which included forty hits (20 potentiators and 20 inhibitors) (Fig. 1b and Supplementary Data 2). We focused on inhibitors that were commercially available at the beginning of the project and tested their cell toxicity by microscopy, looking at cells expressing B2R tagged with YFP, which highlights cell contours and potential morphological changes, such as rounding up of cells following treatment with 50 μM of the compounds that may have indicated cell death. None of the inhibitors tested caused abnormal cell morphological changes when cells were treated with compounds as compared to DMSO-treated cells. Inhibitors were also assessed in terms of structure novelty, derivatization potential, and commercial availability of analogs (within 95–98% similarity from Tanimoto metric, Sci-Finder, https://scifinder-n.cas.org), for structure-activity relationship studies (SAR). They were scored 1–5, from best to worst. We excluded compounds with potential nucleophilic reactivity (e.g., Michael addition: compounds 7, 26, and 27), those reported to have biological activities (compounds 8, 20, 25, 30, and 35) and/or showing autofluorescence (compound 26). Compound 19 ranked high, but only had one other molecule with a similar structure available. Although other molecules could be interesting in their own rights as endocytosis inhibitors (e.g., compounds 1, 9, 11, 12, 13, 24, 31, and 37), we focused on compound 21 (Fig. 1c) because not only did it rank high in our analysis, but it was also the only compound with substantially more similar analogs commercially available at the time of these investigations. In the screen and the follow-up validation assay, 21 inhibited more than 50% AT1R internalization and more than 65% B2R internalization (Supplementary Data 2). […] Because β-arrestins are critically involved in GPCR endocytosis and trafficking in cells, we assessed 21’s effects on β-arrestins’ recruitment to AT1R and B2R at the PM using a BRET assay, as well as their trafficking into endosomes by microscopy.
(§2) HEK293SL cells were seeded at a density of 7.5 × 10^5 cells per 100-mm dish and 24 h later, transiently transfected as such. For receptor internalization experiments, cells were transfected with 0.12 μg AT1R-RlucII, B2R-RlucII, or β2AR-RlucII and 0.48 μg of either rGFP-CAAX (to assess removal from the PM) or rGFP-FYVE (to assess accumulation in the endosomes). For β-arrestin recruitment assays, cells were transfected with 0.48 μg of receptor-YFP along with 0.12 μg of β-arrestin-RlucII. For β-arrestin/AP-2 binding experiments, cells were transfected with 1 μg Flag-AT1R, 1 μg β2-Adaptin-YFP, and 0.12 μg β-arrestin2-RlucII. For G protein activation, cells were transfected with 3 μg of sp-Flag-AT1R along with either 4.5 μg of the Gαq-polycistronic BRET sensor or 0.24 μg of the Gαi3-RlucII and 0.6 μg of GFP10-Gγ2 and Gβ1 sensors or 0.12 μg PKN-RBD-RlucII and 0.48 μg of rGFP-CAAX. […]

Akt activation by EGFR = assay: Western blot of EGFR-mediated Akt activation; conditions: for AKT activation, EGFR (p-Akt over Akt): individual experiments
Description: HEK293SL cells (10^5 cells per well) were seeded in a poly-L-lysine-coated six-well plate and transiently transfected with 3 μg Flag-AT1R, HA-B2R or HA-β2AR and/or 500 ng Flag-MEK1-WT, Flag-MEK1-DD, Flag-BRAF-WT, Flag-BRAF-V600E, Flag-K-Ras-WT, Flag-K-Ras-G12V, HA-ARF6-WT, or HA-ARF6-T27N. Gαq/11 KO and βarr1/2 KO cells were seeded onto 100 mm dishes at a density of 10^6 cells per dish. Next day, cells were transfected with 3 μg AT1R alone or along with 500 ng of β-arrestin2 using PEI. After 18 h of transfection, cells were detached and re-seeded onto poly-L-lysine coated 12-well plates (~1.5–2 × 10^5cells/well) for subsequent experiments. Forty-eight hours post transfection, in a 37 °C water bath, cells were serum-starved for 30 min, pretreated with DMSO (0.1%) or compound 21/Rasarfin (50 µM or at indicated concentrations) for 30 min, then stimulated or not with the indicated ligand [AngII (1 µM), BK (1 µM), Iso (10 µM) or EGF (100 ng/ml)] at indicated times. Cells were put on ice, washed with PBS and solubilized in 2x laemmli buffer (250 mM Tris–HCl pH 6.8, 2% SDS (w/v), 10% glycerol (v/v), 0.01% bromophenol blue (w/v) and 5% β-mercaptoethanol (v/v)) by heating at 65 °C for 15 min. Lysates were resolved on 10 or 14% SDS-PAGE, transferred to nitrocellulose membranes and immunoblotted for p-ERK1/2, ERK1/2, p-Akt, Akt, HA, Myc, β-actin or FLAG. ImageLab 5.2 software was used to quantify the digital blots as fold of the phosphorylated protein over total protein, which were then normalized as indicated in the figure legends. Uncropped immunoblots are provided in the Source Data file.

β2AR = assay: Endosomal BRET assay of isoproterenol-mediated β2AR internalization
Excerpt: as §1, §2

In the case of `CC(C)C(=O)N1CCN(c2ccc(NC(=O)c3cc4ccccc4o3)cc2Cl)CC1` [Compound 21], the IC50 (B2R; Homo sapiens, BK, into endosomes, read-out: IC50 for inhibition of B2R internalization) is reported as 11 µM, the “B2R internalization into endosomes, ligand-promoted BRET (Mean)” value (“B2R internalization into endosomes” below) (B2R; Log [Comp21] (M) -4.3) is reported as 20.7288 percent compared to DMSO and the “B2R internalization into endosomes” value (B2R; Log [Comp21] (M) -4.6) is reported as 30.2526 percent compared to DMSO. For the same compound, the “B2R internalization into endosomes” value (B2R; Log [Comp21] (M) -5) was 61.9767 percent compared to DMSO, the “B2R internalization into endosomes” value (B2R; Log [Comp21] (M) -5.3) was 83.8073 percent compared to DMSO and the “B2R internalization into endosomes” value (B2R; Log [Comp 21] (M) -6) was 104.977 percent compared to DMSO. The “B2R internalization into endosomes” value (B2R; Log [Comp21] (M) -6.3) was 107.04 percent compared to DMSO, the “B2R internalization into endosomes” value (B2R; Log [Comp 21] (M) -7) was 102.555 percent compared to DMSO and the “inhibition of B2R internalization” value (B2R; follow-up validation assay) was “more than 65%”. For the same compound, the “B2R Inhibition (%DMSO)” value (B2R; one experiment, negative = potentiation) was 66.5725 %DMSO, the IC50 (Akt activation by EGFR; Homo sapiens, read-out: potency for inhibition of EGFR-mediated Akt (western blot)) was 4 to 5 µM and the “AKT activation, EGFR (p-Akt over Akt)” value (Akt activation by EGFR; Log [Comp 21] (M) -4.3) was 12.9009 percent compared to DMSO and 28.9803 percent compared to DMSO and 32.6041 percent compared to DMSO. The “AKT activation, EGFR (p-Akt over Akt)” value (Akt activation by EGFR; Log [Comp 21] (M) -5) was 21.4684 percent compared to DMSO and 57.877 percent compared to DMSO and 33.8957 percent compared to DMSO, the “AKT activation, EGFR (p-Akt over Akt)” value (Akt activation by EGFR; Log [Comp 21] (M) -5.3) was 42.6879 percent compared to DMSO and 80.2621 percent compared to DMSO and 48.2006 percent compared to DMSO and the “AKT activation, EGFR (p-Akt over Akt)” value (Akt activation by EGFR; Log [Comp 21] (M) -6) was 93.9059 percent compared to DMSO and 99.6926 percent compared to DMSO and 89.9021 percent compared to DMSO. The “AKT activation, EGFR (p-Akt over Akt)” value (Akt activation by EGFR; Log [Comp 21] (M) -6.3) was 94.5153 percent compared to DMSO and 100.709 percent compared to DMSO and 97.0491 percent compared to DMSO, the “AKT activation, EGFR (p-Akt over Akt)” value (Akt activation by EGFR; Log [Comp 21] (M) -7) was 104.373 percent compared to DMSO and 93.1512 percent compared to DMSO and 83.461 percent compared to DMSO and the IC50 (β2AR; Homo sapiens, read-out: IC50 for inhibition of isoproterenol-mediated β2AR internalization into endosomes) was 15 µM. For the same compound, the “β2AR internalization into endosomes, ligand-promoted BRET (Mean)” value (“β2AR internalization into endosomes” below) (β2AR; Log [Comp21] (M) -4.3) was 36.2133 percent compared to DMSO, the “β2AR internalization into endosomes” value (β2AR; Log [Comp21] (M) -4.6) was 48.1993 percent compared to DMSO and the “β2AR internalization into endosomes” value (β2AR; Log [Comp21] (M) -5) was 64.3705 percent compared to DMSO. For the same compound, the “β2AR internalization into endosomes” value (β2AR; Log [Comp21] (M) -5.3) was 89.3672 percent compared to DMSO, the “β2AR internalization into endosomes” value (β2AR; Log [Comp 21] (M) -6) was 95.9498 percent compared to DMSO and the “β2AR internalization into endosomes” value (β2AR; Log [Comp21] (M) -6.3) was 95.3626 percent compared to DMSO. The “β2AR internalization into endosomes” value (β2AR; Log [Comp 21] (M) -7) was 95.4832 percent compared to DMSO.
